According to the supplement of paper PMC5412046:
Counter-ions that a name gives are not always drawn.

Tests used:
[1] = system: SB.mhdgc-1; test: AC50 for growth inhibition (viability) (log10 M); higher = less potent; settings: SB.mhdgc-1 (hereditary c.1380delA CDH1 gastric cancer)
Method in brief: (§1)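 Dosing used a pintool to add 23 nL compound in DMSO to 1536 wells, each with 500 hereditary or sporadic patient-derived gastric cancer cells, across 11 threefold dilutions starting at a final 46 μM. Viability after 48 h was measured by CellTiter-Glo luminescence on a ViewLux. The log half-maximal activity concentration derives from a four-parameter fit of that viability normalised to DMSO, limited to high-quality curve classes.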

[2] = system: SB.msgc-1; test: as above; settings: SB.msgc-1 (sporadic gastric cancer)
Method in brief: as §1

NCC/1=C/NC(=S)N1[C@H]2CCC3=C(F)C=C(F)C=C3C2 [Nepicastat hydrochloride]
AC50 for growth inhibition (log10 M) [1]: -4.98
AC50 for growth inhibition (log10 M) [2]: -5.03

Cc1ccc([S+](=O)([O-])N[C@@H](Cc2ccccc2)C(=O)CCl)cc1 [TPCK]
AC50 for growth inhibition (log10 M) [1]: -4.78
AC50 for growth inhibition (log10 M) [2]: -4.73

CC[C@@]1(O)C(=O)OCC/2=C1/C=C3\N(CC4=CC5=CC(=CC=C5N=C34)O)C2=O [10-hydroxycamptothecin]
AC50 for growth inhibition (log10 M) [1]: -7.83
AC50 for growth inhibition (log10 M) [2]: -7.33

CC(C)(O)CC(=O)NCCn1ccc2ncnc(Nc3ccc(Oc4cccc(C(F)(F)F)c4)c(Cl)c3)c21 [TAK-285]
AC50 for growth inhibition (log10 M) [1]: -5.43
AC50 for growth inhibition (log10 M) [2]: -6.88

O=C(c1ccc(OCCN2CCCCC2)cc1)c1c(-c2ccc(O)cc2)sc2cc(O)ccc12 [Raloxifene hydrochloride]
AC50 for growth inhibition (log10 M) [1]: -6.88
AC50 for growth inhibition (log10 M) [2]: -5.18

Fc1cc(-c2cccc3ncc(-c4cnn(C5CCNCC5)c4)nc23)cc(F)c1CN1CCOCC1 [NVP-BSK805]
AC50 for growth inhibition (log10 M) [1]: -5.03
AC50 for growth inhibition (log10 M) [2]: -4.68

N[S+](=O)([O-])c1cccc2c1C(=O)c1cccc(O)c1C2=O [LLL-12]
AC50 for growth inhibition (log10 M) [1]: -6.98
AC50 for growth inhibition (log10 M) [2]: -6.63

CC1(C)OC/2=C(\[C@H](NCC3=CC=CC=C3)[C@@H]1O)C(=O)C4=CC=CC=C4C2=O
AC50 for growth inhibition (log10 M) [1]: -5.43
AC50 for growth inhibition (log10 M) [2]: -5.58

C#Cc1cccc(Nc2ncnc3cc(OCCOC)c(OCCOC)cc23)c1 [Erlotinib hydrochloride]
AC50 for growth inhibition (log10 M) [1]: -6.38
AC50 for growth inhibition (log10 M) [2]: -5.63

COc1cc2nccc(Oc3ccc(NC(=O)C4(C(=O)Nc5ccc(F)cc5)CC4)cc3)c2cc1OC [Cabozantinib]
AC50 for growth inhibition (log10 M) [1]: -6.33
AC50 for growth inhibition (log10 M) [2]: -5.48

NC(CO)(CO)CCc1ccc(Sc2cccc(OCc3ccccc3)c2)cc1Cl [KRP 203]
AC50 for growth inhibition (log10 M) [1]: -5.03
AC50 for growth inhibition (log10 M) [2]: -4.58

CC(=O)Nc1sc2c(c1-c1nc3ccccc3s1)CNC2
AC50 for growth inhibition (log10 M) [1]: -6.08
AC50 for growth inhibition (log10 M) [2]: -4.68

CCN(CC)C(=S)SSC(=S)N(CC)CC [Disulfiram]
AC50 for growth inhibition (log10 M) [1]: -7.78
AC50 for growth inhibition (log10 M) [2]: -7.28

Cc1cc(CN2CCN(c3c(Br)cnc4[nH]c(-c5ccc(N6CCN(C)CC6)cc5)nc34)CC2)no1
AC50 for growth inhibition (log10 M) [1]: -4.63
AC50 for growth inhibition (log10 M) [2]: -4.68

CCN(CC)CCNC(=O)c1ccc2nc(-c3ccccc3)c(-c3ccc(CN4CCC(n5c(=O)[nH]c6ccccc65)CC4)cc3)nc2c1 [Merck-22-6]
AC50 for growth inhibition (log10 M) [1]: -5.63
AC50 for growth inhibition (log10 M) [2]: -4.88

Cc1nc(Nc2n[nH]c3c2CN(C(=O)N[C@H](CN(C)C)c2ccccc2)C3(C)C)c2sccc2n1
AC50 for growth inhibition (log10 M) [1]: -5.98
AC50 for growth inhibition (log10 M) [2]: -6.53

Nc1nc(F)nc2c1ncn2[C@@H]1O[C@H](COP(=O)(O)O)[C@@H](O)[C@@H]1O [Fludarabine phosphate]
AC50 for growth inhibition (log10 M) [1]: -5.13
AC50 for growth inhibition (log10 M) [2]: -4.98

CC[S+](=O)([O-])Nc1ccc2c(c1)/C(=C(/Nc1ccc(CN3CCCCC3)cc1)c1ccccc1)C(=O)N2 [Hesperadin]
AC50 for growth inhibition (log10 M) [1]: -5.18
AC50 for growth inhibition (log10 M) [2]: -5.23

CN1C(=O)C(=C/2N(C(=O)N(C3CC3)C(=O)C2=C1/NC4=CC=C(I)C=C4F)C5=CC=CC(=C5)NC(C)=O)\C [Trametinib]
AC50 for growth inhibition (log10 M) [1]: -5.03
AC50 for growth inhibition (log10 M) [2]: -6.63

CCCCOc1ccc(CC(=O)NO)cc1 [Bufexamac]
AC50 for growth inhibition (log10 M) [1]: -5.43
AC50 for growth inhibition (log10 M) [2]: -4.88

O=C(Nc1ncc(SCCN2CCCC2)s1)[C@]1(c2ccc([S+](=O)([O-])C3CC3)cc2)C[C@H]1C1CCCCC1
AC50 for growth inhibition (log10 M) [1]: -5.03
AC50 for growth inhibition (log10 M) [2]: -4.78

N#C/N=C(\NCCCCCCOc1ccc(Cl)cc1)Nc1ccncc1 [GMX-1778]
AC50 for growth inhibition (log10 M) [1]: -8.08
AC50 for growth inhibition (log10 M) [2]: -6.88

CN(C)CCN1C(=O)c2cccc3cc(N)cc(c23)C1=O [Amonafide]
AC50 for growth inhibition (log10 M) [1]: -5.68
AC50 for growth inhibition (log10 M) [2]: -5.08

COC1=CC=C(C=N1)C/2=C/C3=C(C)N=C(N)N=C3N(C4CCC(CC4)OCCO)C2=O (centres undefined)
AC50 for growth inhibition (log10 M) [1]: -7.88
AC50 for growth inhibition (log10 M) [2]: -7.18

COC(=O)/C=C/C(=O)OC [Dimethyl fumarate]
AC50 for growth inhibition (log10 M) [1]: -5.68
AC50 for growth inhibition (log10 M) [2]: -5.48

CC(C)CN(C[C@@H](O)[C@H](Cc1ccccc1)NC(=O)O[C@H]1CCOC1)[S+](=O)([O-])c1ccc(N)cc1 [Amprenavir]
AC50 for growth inhibition (log10 M) [1]: -6.03
AC50 for growth inhibition (log10 M) [2]: -5.63

CCN1CCC(n2cc(CNc3cc(Cl)c4ncc(C#N)c(Nc5ccc(F)c(Cl)c5)c4c3)nn2)CC1 [Wyeth Cot inhibitor-2]
AC50 for growth inhibition (log10 M) [1]: -5.03
AC50 for growth inhibition (log10 M) [2]: -4.73

Cn1cc(-c2cnn3c(N)c(Br)c([C@H]4CCCNC4)nc23)cn1
AC50 for growth inhibition (log10 M) [1]: -5.88
AC50 for growth inhibition (log10 M) [2]: -6.83

Cc1cc(Cl)ccc1OCCCC(=O)NO [Droxinostat]
AC50 for growth inhibition (log10 M) [1]: -5.98
AC50 for growth inhibition (log10 M) [2]: -4.83

CC(C)NC[C@@H](C(=O)N1CCN(c2ncnc3c2[C@H](C)C[C@H]3O)CC1)c1ccc(Cl)cc1 [GDC-0068]
AC50 for growth inhibition (log10 M) [1]: -6.48
AC50 for growth inhibition (log10 M) [2]: -5.13

CCNC(=O)Nc1ccc(-c2nc3c(c(N4CCOC[C@@H]4C)n2)CCN(C2COC2)C3)cc1 [GDC-0349]
AC50 for growth inhibition (log10 M) [1]: -5.28
AC50 for growth inhibition (log10 M) [2]: -4.83

CCC(C)SSc1ncc[nH]1 (centres undefined) [PX-12]
AC50 for growth inhibition (log10 M) [1]: -4.63
AC50 for growth inhibition (log10 M) [2]: -4.58

Cc1nc(N)ncc1-c1nc(N2CCOCC2)c2sc(C(C)(C)O)cc2n1 [GNE-490]
AC50 for growth inhibition (log10 M) [1]: -6.38
AC50 for growth inhibition (log10 M) [2]: -7.43

CC(C)=CC[C@@H](O)C/1=C/C(=O)C2=C(O)C=CC(=C2C1=O)O [Shikonin]
AC50 for growth inhibition (log10 M) [1]: -6.13
AC50 for growth inhibition (log10 M) [2]: -5.83

C[C@@H]1[C@H](O)[C@@H](C)/C=C/C=C/C=C/C=C/C=C/C=C/C=C/[C@H](O[C@@H]2O[C@H](C)[C@@H](O)[C@H](N)[C@@H]2O)C[C@@H]2O[C@](O)(C[C@@H](O)C[C@@H](O)[C@H](O)CC[C@@H](O)C[C@@H](O)CC(=O)O[C@H]1C)C[C@H](O)[C@H]2C(=O)O [Amphotericin B]
AC50 for growth inhibition (log10 M) [1]: -6.38
AC50 for growth inhibition (log10 M) [2]: -4.88

CN[S+](=O)([O-])CCc1ccc2[nH]cc(C3CCN(C)CC3)c2c1 [Naratriptan hydrochloride]
AC50 for growth inhibition (log10 M) [1]: -7.08
AC50 for growth inhibition (log10 M) [2]: -6.83

Nc1ccc(C(=O)c2cc3c(ccc4ccccc43)[nH]2)cc1 [IPFK2]
AC50 for growth inhibition (log10 M) [1]: -4.73
AC50 for growth inhibition (log10 M) [2]: -5.33

ClC1=CC=C(CCCOC/2=N/NC(=O)C(=C2NCC3=CN=CC=C3)/Br)C=C1 [Parogrelil]
AC50 for growth inhibition (log10 M) [1]: -5.13
AC50 for growth inhibition (log10 M) [2]: -4.83

COc1ccc(Nc2cc(-c3cnc(N)nc3)nc(N3CCOCC3)n2)cn1 [NIBR-17]
AC50 for growth inhibition (log10 M) [1]: -6.48
AC50 for growth inhibition (log10 M) [2]: -5.18

C[C@H]1C[C@@H]2[C@H](CC[C@@]3(C)[C@H]2CC[C@]3(OC(C)=O)C(C)=O)[C@@]\4(C)CCC(=O)\C=C14 [Medroxyprogesterone acetate]
AC50 for growth inhibition (log10 M) [1]: -5.23
AC50 for growth inhibition (log10 M) [2]: -4.83

CCN(CC)Cc1ccc2cc(COC(=O)Nc3ccc(C(=O)NO)cc3)ccc2c1 [Givinostat hydrochloride]
AC50 for growth inhibition (log10 M) [1]: -5.38
AC50 for growth inhibition (log10 M) [2]: -6.03

O=C(c1ccc(F)c(F)c1Nc1ccc(I)cc1F)N1CC(O)([C@H]2CCCCN2)C1 [Cobimetinib]
AC50 for growth inhibition (log10 M) [1]: -4.78
AC50 for growth inhibition (log10 M) [2]: -5.28

CNC(=O)c1ccc(Nc2cc(Nc3ccccc3[S+](=O)([O-])C(C)C)c3cc[nH]c3n2)nc1
AC50 for growth inhibition (log10 M) [1]: -4.78
AC50 for growth inhibition (log10 M) [2]: -4.68

C=CC(=O)Nc1cccc(Oc2nc(Nc3ccc(N4CCN(C)CC4)cc3)ncc2Cl)c1 [WZ-3146]
AC50 for growth inhibition (log10 M) [1]: -5.18
AC50 for growth inhibition (log10 M) [2]: -5.88

CCOC(=O)[C@H](CCc1ccccc1)N[C@H]1CS[C@H](c2cccs2)CN(CC(=O)O)C1=O.Cl [Temocapril hydrochloride]
AC50 for growth inhibition (log10 M) [1]: -6.28
AC50 for growth inhibition (log10 M) [2]: -5.88

COC1=C2C[C@@H](C)C[C@H](OC)[C@H](O)[C@@H](C)/C=C(\C)[C@H](OC(N)=O)[C@@H](OC)/C=C/C=C(\C)C(=O)NC(=CC1=O)C2=O [Geldanamycin]
AC50 for growth inhibition (log10 M) [1]: -6.58
AC50 for growth inhibition (log10 M) [2]: -6.43

CC(C)CNc1ccnc(NCc2csc(-c3ccccc3)n2)n1 [KHS101]
AC50 for growth inhibition (log10 M) [1]: -4.78
AC50 for growth inhibition (log10 M) [2]: -4.78

ClC/1=C(NCCN2CCOCC2)/C(=O)C3=C(C=CC=N3)C1=O [DA-3003-1]
AC50 for growth inhibition (log10 M) [1]: -5.58
AC50 for growth inhibition (log10 M) [2]: -5.18

CN(C)CC(=O)N1CCC(CC1)C2=CC=C(NC(=O)C3=NC(=C[NH]3)C#N)C(=C2)\C4=C\CCCC4
AC50 for growth inhibition (log10 M) [1]: -6.28
AC50 for growth inhibition (log10 M) [2]: -5.23

CN(C)C1=CC=C(C=C1)C(C2=CC=C(C=C2)N(C)C)=C/3\C=C/C(/C=C3)=[N+](C)C [Methylrosaniline chloride]
AC50 for growth inhibition (log10 M) [1]: -6.03
AC50 for growth inhibition (log10 M) [2]: -5.78

C#Cc1cccc(Nc2ncnc3cc(OC)c(OCCCCCCC(=O)NO)cc23)c1 [CUDC-101]
AC50 for growth inhibition (log10 M) [1]: -8.28
AC50 for growth inhibition (log10 M) [2]: -7.53

CC(C)(C(=O)NCC(F)(F)C(F)(F)F)C(=O)N[C@@H]1C(=O)Nc2ccccc2-c2ccccc21
AC50 for growth inhibition (log10 M) [1]: -4.83
AC50 for growth inhibition (log10 M) [2]: -5.23
